Converted amounts (≈) assume the structure as drawn.
Conditions: buffer; pH 7.4; 200.0 µM

Row | SMILES | solubility kinetic [µg/mL]
1 | CCCN1CCOC(CC(=O)Nc2ccc([N+](=O)[O-])cc2)C1=O (centres undefined) | 38 (≈ 118 µM)
2 | CN(Cc1ccccc1)C(=O)c1ccccc1C(=O)OCC(=O)N(Cc1ccccc1)C(C)(C)C | 25.7 (≈ 54.4 µM)
3 | CCc1ccc(NC(=O)CN2CC(c3ccccc3)CC2=O)cc1 (centres undefined) | > 48.4
4 | O=C(O)c1cc(-c2ccccc2)n(-c2ccc(F)cc2)n1 | > 42.3
5 | NC(=O)c1ccsc1NC(=O)COC(=O)c1cccnc1Cl | 4.7 (≈ 13.8 µM)
6 | CCCCc1nc2cc(C(=O)N3CCC[C@H]3CO)ccc2o1 | > 45.4
7 | O=C([O-])Cc1csc(-c2cccc(Oc3ccccc3)c2)n1.[Na+] | 49.3
8 | COc1cc2ccccc2cc1C(=O)Nc1cc(C)ccn1 | 4.2 (≈ 14.4 µM)
9 | Cc1cccc(NC(=O)N2CCC(NC(=O)C3CCCCC3)CC2)c1 | 1.6 (≈ 4.66 µM)
10 | c1ccc2c(NCCc3c[nH]c4ccccc34)c3ccccc3nc2c1 | > 50.6
11 | CN1C(=O)N(C)C2(C)CC1(C)N(C)C(=O)N2C | > 36
12 | COC(=O)CCCC(=O)N1CCC(CCC(=O)NC2CC2)CC1 | > 48.7
13 | Cl.O=C(CN1CCCC1)Nc1cccc(Cl)c1 | > 41.3
14 | Cc1cc(Cl)cc(Cl)c1OCCN1CCCC1 | 30.2 (≈ 110 µM)
15 | O=C(NCc1ccccn1)Nc1ccc(F)c(Cl)c1 | > 42
16 | O=C(CSc1ccc2ccccc2n1)NCCCN1CCCC1=O | > 51.5
17 | N#CC1(C#N)C(C(=O)C23CC4CC(CC(C4)C2)C3)C12CCOCC2 (centres undefined) | 3.3 (≈ 10.2 µM)
18 | Nc1c(C(=O)c2ccccc2)oc2ccc([N+](=O)[O-])cc12 | 1.3 (≈ 4.61 µM)
19 | COc1cccc(C(O)c2nc3ccccc3n2C(C)C)c1OC (centres undefined) | > 49
20 | Cc1ccc(S(=O)(=O)c2nc(-c3cccs3)oc2N2CCC(C(N)=O)CC2)cc1 | > 64.7

Row | SMILES | solubility kinetic [µg/mL]
21 | O=C(CCn1c(=S)oc2ccccc21)NC1CCCCC1 | 1.6 (≈ 5.26 µM)
22 | CC(=O)N(Cc1cc(=O)[nH]c2ccccc12)c1ccccc1C | 43.6 (≈ 142 µM)
23 | C=CCc1cccc2cc(C(=O)Nc3ccc(NC(C)=O)cc3)c(=O)oc12 | 1.7 (≈ 4.69 µM)
24 | Cn1c(N)nc2ccccc2c1=O | 21.9 (≈ 125 µM)
25 | O=C(CCCc1nc(-c2ccccc2Cl)no1)N1CCOCC1 | > 50.4
26 | Cc1ccc(N2C(=NC(=O)c3ccccc3)SC3CS(=O)(=O)CC32)cc1 (centres undefined) | < 0.4
27 | COc1ccc(CCNC(=O)c2ccco2)cc1OC | 40.8 (≈ 148 µM)
28 | Cc1nc(-c2cccc(S(=O)(=O)N3CCCCC3)c2)cs1 | 24.3 (≈ 75.4 µM)
29 | CCc1sc(C(=O)Nc2nccs2)cc1C | 3.6 (≈ 14.3 µM)
30 | Cc1nc2c(ccc3c([N+](=O)[O-])cccc32)c(C)c1C | 0.8 (≈ 3 µM)
31 | C=C1c2cc(C)c(C)cc2NC(=O)N1c1ccccc1 | 24.4 (≈ 92.3 µM)
32 | Cn1c(O)c(/C=N/N2CCOCC2)c(=O)n(-c2ccccc2)c1=S | > 52
33 | Clc1ccc(C(c2ccccc2)N2CCN(c3ccccn3)CC2)cc1 (centres undefined) | 0.9 (≈ 2.47 µM)
34 | Cc1nccc(-c2cccc(NC(=O)Nc3ccc(Cl)cc3)c2)n1 | 0.6 (≈ 1.77 µM)
35 | CC(C)c1ccc(C(=O)OCC(=O)NC2CCCC2)cc1 | 11.8 (≈ 40.8 µM)
36 | CCOc1ccccc1N1CCN(C(=O)CC(C)(C)C)CC1 | 45.1 (≈ 148 µM)
37 | O=C(COC(=O)CC1CC2CCC1C2)NCc1ccc(F)cc1 (centres undefined) | 46.1 (≈ 144 µM)
38 | C/C=C/C=C/C(=O)OC(C)C(=O)Nc1cc([N+](=O)[O-])ccc1OC (centres undefined) | 18 (≈ 53.8 µM)
39 | COc1cc(C)c(NC(=O)Cc2ccsc2)cc1OC | 42.4 (≈ 146 µM)
40 | O=C(Nc1cccc(Cl)c1)Nc1c[nH]c(=O)[nH]c1=O | 3.4 (≈ 12.1 µM)

Row | SMILES | solubility kinetic [µg/mL]
41 | O=C(/C=C/c1ccc([N+](=O)[O-])cc1)Nc1cccc(S(=O)(=O)NC2=NCCCCC2)c1 | 11.5 (≈ 26 µM)
42 | O=C(/C=C/c1ccco1)NC(=S)Nc1cccc(C(=O)O)c1 | > 47.4
43 | CCOC(=O)c1cc2ccccc2n1CC(=O)c1ccccc1 | < 0.7
44 | N#C/C(=C\c1cccnc1)C(=O)Nc1ccc(S(N)(=O)=O)cc1 | 36.6 (≈ 111 µM)
45 | CCOC(=O)N1CCN(C(=O)c2ccc(OCC)cc2)CC1 | > 46
46 | COc1ccc(CNCc2ccncc2)c(OC)c1.Cl | > 44.2
47 | CC(C)C(NC(=O)c1ccccc1F)C(=O)NCC(c1ccco1)N1CCCCC1 (centres undefined) | > 62.3
48 | COC(=O)c1ccccc1S(=O)(=O)N1CCn2cccc2C1C (centres undefined) | 43.2 (≈ 129 µM)
49 | O=C(Nc1nc2ccccc2s1)Nc1ccc(F)cc1F | < 0.2
50 | COc1ccccc1OCc1csc(N)n1 | > 35.4
51 | CCCCc1nc(C(N)=O)c2[nH]c(=O)n(-c3ccc(OCC)cc3)c2n1 | 5.6 (≈ 15.8 µM)
52 | CN(C(=O)c1ccc2c(c1)OCO2)C1CCS(=O)(=O)C1 (centres undefined) | > 44.6
53 | COc1cc(/C=C/C(=O)OCC(=O)NCc2ccc3c(c2)OCO3)cc(OC)c1OC | 4.3 (≈ 10 µM)
54 | Cc1ccsc1CNC12CC3CC(CC(C3)C1)C2.Cl | 38.1
55 | CC(C)c1ccc(NC(=O)CN2C(=O)NC3(CCCCCCC3)C2=O)cc1 | 16.4 (≈ 44.1 µM)
56 | Cn1c(=O)c2c(nc(Sc3ccccc3N)n2C)n(C)c1=O | 39.1 (≈ 123 µM)
57 | COc1cc(CC(=O)O)c([N+](=O)[O-])cc1OC | > 36.2
58 | O=C(COc1ccc(F)cc1Br)NCC1COc2ccccc2O1 (centres undefined) | 17.5 (≈ 44.2 µM)
59 | CC1CCCN(C(=O)COC(=O)COc2ccc(Cl)cc2)C1 (centres undefined) | 20.2 (≈ 62 µM)
